Assay results as given in patent US20090162447A1, “Spherically Shaped Substances” (priority 2005, published 2009).
Several values for one entry are separate records, joined by “and”; a condition that tells them apart may be missing. Equal values may be shown once. Where a name gives a salt, the structure may show the parent alone.

Tests used:
Type in all cases: physicochemical
[1] = Angle of repose test on tilted smooth tile; conditions: tile tilted 1° at a time; angle at which first particles slide
Excerpt: Another definition of the angle of repose is the maximum angle of tilt of a bed of the powder beyond which the powder cannot retain a static pose. To measure the angle of repose according to this definition, the powder of the present embodiments can be placed on a smooth solid bed surface. The bed surface can then be tilted very slowly about the horizontal axis to a maximum angle without the particles sliding. When the bed surface is tilted beyond the maximum angle, sliding occurs, and the angle of the bed surface to the horizontal once the particles begin sliding is defined as the angle of repose. An angle of repose measured by this technique is oftentimes referred to as tilting angle of repose.
The diltiazem hydrochloride particles were subjected to an angle of repose test. The particles were placed on a smooth tile positioned horizontally. The tile was tilted slowly each time at 1° about the horizontal axis. The angle of repose was defined as the angle at which the first particles had slide.

[2] = Surface smoothness from particle images (Scanning Electron Microscopy); conditions: as shown in images of the particles
Protocol: An additional estimate of the particles' smoothness was performed by analyzing the samples via Scanning Electron Microscopy (SEM). FIGS. 9A-C are images of the raw sucrose particles (FIG. 9A), sucrose particles of the present embodiments (FIG. 9B) and the prior art particles (FIG. 9C).

[3] = Shape factor and aspect ratio by DSA-10 image analyzer; conditions: samples (i)-(iii); for shape factor: 4πA/P^2 by DSA-10 during constant flow of slurry; for aspect ratio: minimal Feret / maximal Feret
Protocol: The sphericity of the particles was also measured using a DSA-10 image analyzer (Ankersmid Ltd., Israel). The analysis was performed during constant flow of slurry containing the particles. Images of about 1000 particles were analyzed by the image analyzer to determine the sphericity of the particles. In these measurements the sphericity was also as defined 4πA/P^2. To distinguish between the sphericity values obtained as determined using the image processing software and the sphericity values obtained using the image analyzer, the latter are referred to below as “shape factor”.
Beside sphericity, the DSA-10 image analyzer was used to characterize the shape of the particles by their aspect ratio, defined as the ratio between the minimal Feret and the maximal Feret of the particles.

[4] = Sphericity by optical microscope images and image processing software (Buehler Omnimet)
Protocol: Thus, denoting the area of the image by A and the perimeter of the image by P, the sphericity, s, can be defined as s=4πA/P^2. As will be appreciated by one of ordinary skill in the art, when the image is a perfect circle, A=π(P/2π)^2=P^2/4π and s=1. When the area of the image is 0 (i.e., the image is a line or a curve) s=0. The samples were imaged through a transmission optical microscope (magnification: ×12.5). The images were analyzed by image processing software (Buehler Omnimet®). Each image processing comprised the following steps. In a first step the particles were delineated for 1 cycle; in a second step, dark areas were defined by thresholding; in a third step, the dark areas were filled; in a fourth step, particles smaller than 20×20 pixels were eliminated; in a fifth step border particles were eliminated; and in a sixth step the delineation of the non-eliminated particles were processed by the octagonal kernel of the software for 3 cycles. FIG. 19 is an image showing the raw sucrose particles after image processing. Following image processing the area, A, and perimeter, P, of each particle was measured from the images. The sphericity of each particle was defined as 4πA/P^2.

[5] = Flow rate test with Hall flow meter; conditions: 5 millimeter diameter nozzle tilted at an angle of 30°
Excerpt: The flowability of the powder of the present embodiments can also be characterized by its flow rate at certain conditions. The flowability can be measured using a suitable flow meter, such as, but not limited to, a Hall flow meter. Thus, according to a preferred embodiment of the present invention the powder of the preset embodiments is capable of maintaining a flow rate of at least 6, more preferably at least 8, more preferably at least 10 gram per square centimeter per second, through a 5 millimeters nozzle tilted at an angle of 30°.
The metformin particles were subjected to a flow rate test using a Hall flow meter having a 5 millimeter diameter nozzle. The nozzle was tilted at an angle of 30°.

[6] = Ratio of optical surface area to BET surface area / rugosity
Excerpt: In an additional embodiment, the smoothness is defined by a ratio between an optical surface area of the particle and a BET surface area thereof.
An optical surface area of the particle is the surface area of the particle as measured optically. Such measurement can be performed, for example, by obtaining an image of the particle using an optical microscope and estimating its surface area, by approximating the shape of the particle to a symmetrical shape. For example, when the shape of the particle is similar to a sphere, its optical surface area can be approximated by 4πR^2, where R is the radius of the particle, as measured from the image. When the shape of the particle is similar to a spheroid, having a long axis a and an aspect ratio of ε, its surface area can be approximated by 2πa^2 ε (ε+t/b), where b is given by b^2=1−ε^2, and t (in radians) is given by sin(t)=b. As will be appreciated by one ordinarily skilled in the art the aspect ratio can also be approximated as the square root of the sphericity defined above.
A BET surface of the particle refers to a surface measured using a method developed by Brunauer, Emmett and Teller and commonly referred to as BET method. According to the BET method, the surface area is determined by allowing the surface to interact with nitrogen molecules and analyzing the corresponding adsorption curves. […]

[7] = BET specific surface area measurement (TriStar 3000 analyzer)
Protocol: A BET surface of the particle refers to a surface measured using a method developed by Brunauer, Emmett and Teller and commonly referred to as BET method. According to the BET method, the surface area is determined by allowing the surface to interact with nitrogen molecules and analyzing the corresponding adsorption curves. The BET method is well known in the art and is found in many publications (to this end see, e.g., S. J. Gregg and K. S. Sing, “Adsorption, Surface Area and Porosity”, Academic Press, London, 1995).
Following drying, a sample of the formed sucrose particles was subjected to BET measurement using a TriStar 3000 analyzer (Micromeritics, Georgia, USA), to obtain a specific surface area for the particles (surface area per unit mass). An averaged value of 0.03 m^2/gr was measured. For comparison, the specific surface area of a sample of prior art particles of similar size (355-500 micrometer Suglets®, purchased from NP Pharm, France), was also measured. The specific surface area of the particles of this sample was 0.27 m^2/gr. Thus, the sucrose particles produced according to the teaching of the present embodiments of the invention are characterized by a specific surface area which is about 9 times smaller than the specific surface area characterizing the prior art. As the average size of the samples was similar, the specific surface was used as a measure of the smoothness of the particles.

[8] = Table 2, samples (i)-(iii), hydrochloride
[9] = 4πA/P^2, Table 1, magnification ×12.5

| SMILES | shape factor ([3]; hydrochloride) | aspect ratio ([3]; hydrochloride) | sphericity [4, 8] | shape factor [3] | aspect ratio [3] | sphericity ([4]; Table 2, samples (i)-(iii)) | further results |
| --- | --- | --- | --- | --- | --- | --- | --- |
| COc1ccc([C@@H]2Sc3ccccc3N(CCN(C)C)C(=O)[C@@H]2OC(C)=O)cc1 [diltiazem hydrochloride] | – | – | – | – | – | – | angle of repose [1]: 38 °; surface of the particles (image) [2]: substantially smooth |
| COc1ccc([C@@H]2Sc3ccccc3N(CCN(C)C)C(=O)[C@@H]2OC(C)=O)cc1.Cl [raw dilitiazem hydrochloride, diltiazem hydrochloride, reference compound] | 0.7032 and 0.7056 and 0.6847 | 0.5416 and 0.5442 and 0.5293 | 0.5278 and 0.4773 and 0.4954 | – | – | – | angle of repose [1]: 48 ° |
| CN(C)C(=N)N=C(N)N [raw metformin, metformin, reference compound] | – | – | – | 0.8244 and 0.8214 and 0.8404 | 0.6900 and 0.6434 and 0.6420 | 0.6146 and 0.5675 and 0.5720 | flow rate ([5]; listed as raw metformin particles): no flow was observed |
| NC(=O)N1c2ccccc2CC(=O)c2ccccc21 [raw oxcarbazepine, oxcarbazepine, reference compound] | – | – | – | 0.7789 and 0.7908 and 0.7886 | 0.6102 and 0.6062 and 0.6221 | 0.4997 and 0.4760 and 0.4144 | – |
| OC[C@H]1O[C@@](CO)(O[C@H]2O[C@H](CO)[C@@H](O)[C@H](O)[C@H]2O)[C@@H](O)[C@@H]1O [raw sucrose, sucrose, reference compound] | – | – | – | – | – | – | sphericity [4, 9]: 0.773 ± 0.05 |
| OC[C@H]1O[C@@](CO)(O[C@H]2O[C@H](CO)[C@@H](O)[C@H](O)[C@H]2O)[C@@H](O)[C@@H]1O [rounded 300-600 μm sucrose, sucrose] | – | – | – | – | – | – | sphericity [4, 9]: 0.875 ± 0.027; surface of the particles (image) [2]: substantially smooth; rugosity ([6]; corresponds to optical/BET surface area ratio): 1.5-3; optical specific surface area ([6]; spherical or spherical-like particle, diameter about 400 micrometer): 0.01 to 0.02 m²/g; specific surface area (surface area per unit mass), BET ([7]; dried powder sample, averaged value): 0.03 m^2/gr; BET specific surface ([7]; particles whose average diameter is about 400 micrometer): about 0.03 gr/m^2; specific surface area, times smaller than prior art ([7]; versus 355-500 micrometer Suglets of similar size): about 9 times |
| COc1ccc([C@@H]2Sc3ccccc3N(CCN(C)C)C(=O)[C@@H]2OC(C)=O)cc1.Cl [rounded dilitiazem hydrochloride 20-45 μm] [diltiazem hydrochloride] | 0.8426 and 0.8168 and 0.8467 | 0.6915 and 0.6935 and 0.6947 | 0.5106 and 0.5220 and 0.5139 | – | – | – | – |

More lines, main results first:

| shape factor ([3]; hydrochloride) | aspect ratio ([3]; hydrochloride) | sphericity [4, 8] | shape factor [3] | aspect ratio [3] | sphericity ([4]; Table 2, samples (i)-(iii)) | SMILES | further results |
| --- | --- | --- | --- | --- | --- | --- | --- |
| 0.8229 and 0.8211 and 0.8368 | 0.7015 and 0.6986 and 0.7053 | 0.6572 and 0.6601 and 0.6940 | – | – | – | COc1ccc([C@@H]2Sc3ccccc3N(CCN(C)C)C(=O)[C@@H]2OC(C)=O)cc1.Cl [rounded dilitiazem hydrochloride above 45 μm] [diltiazem hydrochloride] | – |
| 0.8383 and 0.8419 and 0.8279 | 0.6828 and 0.6923 and 0.6731 | 0.5315 and 0.6004 and 0.5942 | – | – | – | COc1ccc([C@@H]2Sc3ccccc3N(CCN(C)C)C(=O)[C@@H]2OC(C)=O)cc1.Cl [rounded dilitiazem hydrochloride mix 20-45 μm + 45 μm] [diltiazem hydrochloride] | – |
| – | – | – | 0.8719 and 0.8739 and 0.8843 | 0.6791 and 0.6740 and 0.6904 | 0.7634 and 0.7676 and 0.7344 | CN(C)C(=N)N=C(N)N [rounded metformin, metformin] | flow rate ([5]; listed as rounded metformin particles): 10.2 gr/(cm^2×s); surface of the particles (image) [2]: substantially smooth |
| – | – | – | 0.8138 and 0.7996 and 0.8174 | 0.5875 and 0.5887 and 0.5829 | 0.6103 and 0.5707 and 0.4969 | NC(=O)N1c2ccccc2CC(=O)c2ccccc21 [rounded oxcarbazepine, oxcarbazepine] | – |
